The assay deals with BDF1 mice, P388 leukemia ip, median survival T/C. The assay is described as follows: NCI In Vivo Anticancer Drug Screen. Data for tumor model P388 Leukemia (intraperitoneal) in B6D2F1 (BDF1) mice. The note with it: endpoint: median survival time, higher = longer survival. The gist of the method: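 T/C = treated-group survival ÷ vehicle-control survival; tumour transplanted into mice before dosing.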

The mark [1] stands for this setting: dose: 1.0 mg/kg/injection, schedule: Q01DX009 (ip), vehicle: saline.
Setting [2] is: dose: 2.0 mg/kg/injection, schedule: Q01DX009 (ip), vehicle: saline.
Where [3] appears, read: dose: 100.0 mg/kg/injection, schedule: Q04DX003 (ip), vehicle: Klucel (hydroxypropylcellulose) (HPC).
Setting [4] is: dose: 200.0 mg/kg/injection, schedule: Q04DX003 (ip), vehicle: Klucel (hydroxypropylcellulose) (HPC).
[5] abbreviates: dose: 400.0 mg/kg/injection, schedule: Q04DX003 (ip), vehicle: Klucel (hydroxypropylcellulose) (HPC).

“And” between values parts separate entries of the source, which are not always exact repeats. Identical values can stand only once. Toxic doses and inconclusive results are not listed.

`CCCC(=O)NC1=C(N2CC2)C(=O)C(NC(=O)CCC)=C(N2CC2)C1=O`: the T/C reads like this: (dose: 0.44 mg/kg/injection, schedule: Q04DX003 (ip), vehicle: saline with Tween-80) 104 % of control; (dose: 0.66 mg/kg/injection, schedule: Q04DX003 (ip), vehicle: saline with Tween-80) 109 % of control; under setting [1], 213 % of control; (dose: 1.0 mg/kg/injection, schedule: Q04DX003 (ip), vehicle: saline with Tween-80) 122 % of control; (dose: 1.5 mg/kg/injection, schedule: Q04DX003 (ip), vehicle: saline with Tween-80) 100 % of control; under setting [2], 200 % of control. The T/C reads like this: (dose: 2.5 mg/kg/injection, schedule: Q04DX003 (ip), vehicle: saline with Tween-80) 150 % of control; (dose: 4.0 mg/kg/injection, schedule: Q01DX009 (ip), vehicle: saline) 285 % of control; (dose: 5.0 mg/kg/injection, schedule: Q04DX003 (ip), vehicle: saline with Tween-80) 204 % of control; (dose: 10.0 mg/kg/injection, schedule: Q04DX003 (ip), vehicle: saline with Tween-80) 250 % of control.

With `S=c1cc(-c2ccccc2)ss1`, the T/C is 110 % of control and 101 % of control (dose: 100.0 mg/kg/injection, schedule: Q04DX003 (ip), vehicle: saline with Tween-80); 115 % of control and 101 % of control (dose: 200.0 mg/kg/injection, schedule: Q04DX003 (ip), vehicle: saline with Tween-80); 108 % of control (dose: 400.0 mg/kg/injection, schedule: Q04DX003 (ip), vehicle: saline with Tween-80).

For `Clc1cc(Cl)c(I)c(Cl)c1`, the T/C is 92 % of control (dose: 100.0 mg/kg/injection, schedule: Q01DX009 (ip), vehicle: saline with Tween-80); 100 % of control under setting [3]; 89 % of control (dose: 200.0 mg/kg/injection, schedule: Q01DX009 (ip), vehicle: saline with Tween-80); 100 % of control under setting [4]; 96 % of control (dose: 400.0 mg/kg/injection, schedule: Q01DX009 (ip), vehicle: saline with Tween-80); 91 % of control under setting [5].

With `Cc1cc(C)c([I+]c2c(C)cc(C)cc2C)c(C)c1`, the T/C runs as follows: (dose: 0.28 mg/kg/injection, schedule: Q01DX009 (ip), vehicle: saline) 118 % of control; (dose: 0.45 mg/kg/injection, schedule: Q04DX003 (ip), vehicle: saline) 109 % of control; (dose: 0.56 mg/kg/injection, schedule: Q01DX009 (ip), vehicle: saline) 118 % of control; (dose: 0.65 mg/kg/injection, schedule: Q04DX003 (ip), vehicle: saline) 109 % of control; (dose: 1.1 mg/kg/injection, schedule: Q04DX003 (ip), vehicle: saline) 120 % of control; (dose: 1.13 mg/kg/injection, schedule: Q01DX009 (ip), vehicle: saline) 109 % of control. Moreover, the T/C by setting is: (dose: 1.65 mg/kg/injection, schedule: Q04DX003 (ip), vehicle: saline) 120 % of control; (dose: 3.0 mg/kg/injection, schedule: Q01DX009 (ip), vehicle: Klucel (hydroxypropylcellulose) (HPC)) 103 % of control; (dose: 3.0 mg/kg/injection, schedule: Q04DX003 (ip), vehicle: Klucel (hydroxypropylcellulose) (HPC)) 112 % of control; (dose: 6.0 mg/kg/injection, schedule: Q01DX009 (ip), vehicle: Klucel (hydroxypropylcellulose) (HPC)) 111 % of control; (dose: 6.0 mg/kg/injection, schedule: Q04DX003 (ip), vehicle: Klucel (hydroxypropylcellulose) (HPC)) 100 % of control; (dose: 8.0 mg/kg/injection, schedule: Q04DX003 (ip), vehicle: Klucel (hydroxypropylcellulose) (HPC)) 95 % of control. Besides, the T/C is 120 % of control (dose: 8.0 mg/kg/injection, schedule: Q04DX003 (ip), vehicle: saline with Tween-80) and 115 % of control (dose: 12.5 mg/kg/injection, schedule: Q04DX003 (ip), vehicle: Klucel (hydroxypropylcellulose) (HPC)).

In the case of `Cc1cc(C)c(C)c(Br)c1C`, the T/C runs as follows: under setting [3], 95 % of control; under setting [4], 100 % of control; under setting [5], 100 % of control.

As for `Cc1n(CC(C)C)c2c([n+]1C)C(=O)c1ccccc1C2=O`, the T/C is 90 % of control (dose: 0.25 mg/kg/injection, schedule: Q01DX010 (ip), vehicle: saline); 90 % of control (dose: 0.5 mg/kg/injection, schedule: Q01DX010 (ip), vehicle: saline); 105 % of control under setting [1]; 90 % of control (dose: 1.0 mg/kg/injection, schedule: Q01DX010 (ip), vehicle: saline); 120 % of control under setting [2]; 120 % of control (dose: 2.0 mg/kg/injection, schedule: Q01DX010 (ip), vehicle: saline).

Take `Cc1cn(C)c2nccnc12`: the T/C by setting is: (dose: 12.5 mg/kg/injection, schedule: Q01DX009 (ip), vehicle: water) 100 % of control; (dose: 12.5 mg/kg/injection, schedule: Q04DX003 (ip), vehicle: water) 102 % of control; (dose: 25.0 mg/kg/injection, schedule: Q01DX009 (ip), vehicle: water) 107 % of control; (dose: 25.0 mg/kg/injection, schedule: Q04DX003 (ip), vehicle: water) 96 % of control; (dose: 50.0 mg/kg/injection, schedule: Q01DX009 (ip), vehicle: water) 98 % of control; (dose: 50.0 mg/kg/injection, schedule: Q04DX003 (ip), vehicle: water) 112 % of control. The T/C by setting is: (dose: 100.0 mg/kg/injection, schedule: Q01DX009 (ip), vehicle: water) 100 % of control; (dose: 100.0 mg/kg/injection, schedule: Q04DX003 (ip), vehicle: water) 117 % of control; (dose: 200.0 mg/kg/injection, schedule: Q01DX009 (ip), vehicle: water) 104 % of control; (dose: 200.0 mg/kg/injection, schedule: Q04DX003 (ip), vehicle: water) 98 % of control; (dose: 300.0 mg/kg/injection, schedule: Q04DX003 (ip), vehicle: water) 94 % of control.

For the compound `CO[C@H]1CC[C@@]2(C)C(=CC[C@H]3[C@@H]4C[C@H](O)C[C@@]4(C)CC[C@@H]32)C1`, the T/C (dose: 12.5 mg/kg/injection, schedule: Q01DX010 (ip), vehicle: other) was 105 % of control; the T/C (dose: 25.0 mg/kg/injection, schedule: Q01DX010 (ip), vehicle: other) was 90 % of control and 120 % of control.

The values above are taken from PubChem BioAssay AID328 (DTP/NCI, 2004).
